# Laboratory results taken from patent publication EP2050747A1, “Dimers of harmol or of its derivatives and uses thereof” (BioAlliance Pharma, priority 2007, dated 2009).
# Legend:
# F-actin = assay: Actin dynamics, fluorescence anisotropy assay in tumor cell cytosolic fraction; type: biochemical; design: Kobs: unit not given beside the values; details: for Kobs: rate constant of F-actin elongation; for actin polymerisation kinetics compared with normal NIH 3T3 cytosolic fraction: tumoral NIH 3T3 EF cytosolic fraction; for F actin steady state value (Δ mA max), effect in words / F actin elongation rate constant (Kobs), effect in words: added to assay medium, versus untreated; for F actin steady state value (Δ mA max), effect in words: NIH 3T3 EF cytosolic fraction or lysate, harmol at 10 µM
# Method: Actin dynamics have been quantified in tumor cell cytosolic fraction using the fluorescence anisotropy assay which gains access to rate constant of F-actin elongation (kobs) and steady state concentration of F-actin (Δ mA max).
# All reactions were carried out at 22°C and fluorescence anisotropy signal was recovered at 520 nm with excitation at 490 nm in a Beacon 2000 (Panvera). Alexa 488 actin (Molecular Probes) was centrifuged at 35 000 rpm for 2 h at 4°C to sediment residual actin polymers in a Beckman L5-50B ultracentrifuge. […] 80% of the supernatant was withdrawn; the concentration was defined through fluorescence measurements (excitation at 490 nm and signal recovering at 520 nm). The ultracentrifuged actin concentration was calculated using the non ultracentrifuged Alexa 488 actin as a standard. The supernatant was aliquoted, frozen in liquid nitrogen and stored at -80°C.
# Before experiment, an aliquot of ultracentrifuged Alexa 488 actin was diluted to a concentration of 1 mg/ml in G buffer (5 mM Tris pH 8.1, 2 mM CaCl2, 0.2 mM DTT, 0.2 mM ATP). 3 µl of diluted Alexa 488 actin was mixed in 168 µl of G buffer and actin monomers anisotropy was measured before the addition of 4 µl of polymerisation buffer (2.5 M KCI, 50 mM MgCl2, 25 mM ATP), 5 µl of G buffer in the presence or in the absence of the chemical molecule and 20 µl cellular extract of normal NIH 3T3 cells or malignant NIH 3T3 EF cells at 2 mg/ml. The final concentration of Alexa 488 actin was 4 nM. The ratio of unlabelled to labelled actin was about 140/4 nM. Measurements were made each 10 sec for 200 sec. Actin monomers anisotropy value was subtracted, yielding the anisotropy enhancement (Δ mA). The data were fitted with the equation Y= Ymax . [1- exp(- K.X)]. The curves start at zero and ascend to Ymax that corresponds to the steady state anisotropy value (Δ mA eq), with a rate constant K. Y is anisotropy values of which monomers anisotropy is substracted and X is the time (Assessment of cellular actin dynamics by measurement of fluorescence anisotropy. Anal Biochem. 2007 Aug 1;367(1):95-103. Epub 2007 Apr 5. Spitz et al.).
# NIH 3T3 EF [1] = assay: MTT assay (cellular viability); type: cell-based; details: Mus musculus, NIH3T3, 72 h, 3 days
# Method: (§1) Growth studies were performed using the [3-(4,5 dimethylthiazol-2-yl)-2,5-diphenyl-2H-tetrazolium bromide] (Sigma) colorimetric assay.
# (§2) About 1500 cells were seeded in a 96-well culture plate 24 hours before adding increasing concentrations of tested molecule. The plate was incubated at 37°C for 3 days. 10 µl MTT stock solution (5 mg/ml in phosphate buffer saline) was added to 90 µl of complete medium in each well, the incubation was continued for 3 h at 37°C. 100 µl of lysis buffer (10 % sodium dodecyl sulfate, 1% HCl 1N; pH 4.7) was added to each well, and the plate was incubated overnight. The absorbance was determined using an Integrated EIA Management System (Labsystem) at a wavelength of 570 nm. The proliferation rates were calculated from the OD readings using the untreated cells as 100%.
# B16F10 [2] = assay: MTT assay (cellular viability); type: cell-based, Murine; details: for IC50: Mus musculus, B16-F10, 72 h, B16F10, 3 days
# Method: as §1, §2
# NIH 3T3 EF [3] = assay: Cloning assay, colony formation in semi solid medium (methylcellulose); type: cell-based; details: for inhibitory activity on NIH 3T3 EF colony formation in methylcellulose semi-solid medium: Figure 2; for IC50: Mus musculus, NIH3T3, 504 h, NIH 3T3 EF, 3 weeks, read-out: Inhibition of colony formation (methylcellulose) IC50
# Method: (§3) Cells were embedded in complete culture medium supplemented with 0,8% methylcellulose (Methocel MC4000, Sigma), seeded in triplicate into 35-mm dishes (Greiner Bio-one Ref 627102, Dominique Dutscher) and incubated at 37 °C in a humidified 5% CO2 atmosphere.
# (§4) The number of cells seeded was 1000 cells per dish. After one week (B16F10 cell line) to 3 weeks (NIH 3T3 EF cell line), macroscopic clones were counted.
# B16F10 [4] = assay: as above; type: cell-based, Murine; details: for IC50: Mus musculus, B16-F10, 168 h, B16F10, one week, read-out: Inhibition of colony formation (methylcellulose) IC50
# Method: as §3, §4
# NIH 3T3 EF cells = assay: Rescue of F-actin network, FITC-phalloidin fluorescence microscopy; type: cell-based; details: non cytotoxic concentration (100 nM), three days, Figure 4
# Method: Malignant NIH 3T3 EF cells were seeded onto glass cover slips at a density of 2000 cells per cm^2. The next day, tested molecules were applied to NIH 3T3 EF cells at various non cytotoxic concentrations. Three days later, cells were fixed for 10 min in PBS containing 3.7 % formaldehyde at 4°C before examination with a fluorescence microscope. The formaldehyde solution was neutralized with 50 mM NH4Cl. Permeabilisation was carried out for 4 min with 0.4% Triton X-100 in PBS. Cells were incubated for 1 h at room temperature with blocking buffer (3% bovine serum albumin in PBS) and then for 1 h with FITC-phalloidin (Sigma) which stabilizes structures by inhibiting phosphate release from ADP-Pi-actin filaments and allows visualization of actin filaments by fluorescence microscopy. The cover slips were mounted on microscope slides using a solution of glycerol 50%, DABCO 2.5% in PBS as embedding medium.
# [5] = tested on: malignant NIH 3T3 EF cells; assay: Wound healing assay (cell motility); type: cell-based; details: NIH 3T3 EF, non cytotoxic concentration (25-100 nM), 10 h after wound formation, Figure 5
# Method: (§5) Harmol dimers have been tested in a cell motility assay: the behaviour of tumoral cells treated by these dimers was compared with non-treated tumoral cells in a wound healing assay. Wound healing assay was performed to evaluate the effect of tested molecules on motility of malignant NIH 3T3 EF cells and melanoma cell line B16F10. About 100 000-200 000 cells were seeded in a 6-well culture plate and the tested molecule was added 24 hours later. Cells were grown for 3 days to confluence about 90-95% and small scratch-wounds (1 mm width) were made with a pipette tip. Cell debris were removed, then the cultures were incubated in complete medium for 10 h in the presence of the same concentration of the tested molecule. Then, the cells were fixed for 10 min in PBS containing 3.7% formaldehyde at 4°C.
# [6] = tested on: melanoma cell line B16F10; assay: Wound healing assay (cell motility); type: cell-based, Murine; details: B16F10, non cytotoxic concentration (25-100 nM), 24 h after wound formation, Figure 6
# Method: as §5, with “Cell debris were removed, then the cultures were incubated in complete medium for 10 h in the presence of the same concentration of the tested molecule.” left out
# [7] = 10 µM, NIH 3T3 EF extract, steady state concentration of F-actin (anisotropy enhancement)
Structure (SMILES),"Kobs (F-actin; 10 µM, NIH 3T3 EF extract)",Δ mA max (F-actin; [7]),actin polymerisation kinetics compared with normal NIH 3T3 cytosolic fraction (F-actin; 10 µM),"F actin steady state value (Δ mA max), effect in words (F-actin)","F actin elongation rate constant (Kobs), effect in words (F-actin; NIH 3T3 EF cytosolic fraction)",IC50 (NIH 3T3 EF [1]) [nM],IC50 (B16F10 [2]) [nM],inhibitory activity on NIH 3T3 EF colony formation in methylcellulose semi-solid medium (NIH 3T3 EF [3]),IC50 (NIH 3T3 EF [3]) [nM],inhibitory activity on B16F10 colony formation in methylcellulose semi-solid medium (B16F10 [4]; Figure 3),IC50 (B16F10 [4]) [nM],reorganisation of the actin network in tumor cells (NIH 3T3 EF cells),inhibition of malignant cell motility [5],inhibition of malignant cell motility [6],"F actin steady state value compared with NIH 3T3 cytosolic fraction (F-actin; 10 µM, NIH 3T3 EF cytosolic fraction)","F actin elongation rate constant compared with NIH 3T3 cytosolic fraction (F-actin; NIH 3T3 EF cytosolic fraction, BA016FZ527 at 10 µM, harmine concentration not given)","Δ mA max (F-actin; 10 µM, tumoral NIH3T3 EF cellular lysate) [mA]",cytotoxicity as measured by MTT test (B16F10 [2]; at 3 µM),inhibitory activity on B16F10 colony formation in methylcellulose semi-solid medium (B16F10 [4]; at 3 µM)
"Cc1nccc2c1[nH]c1cc(OCC3OC(C)(C)OC3COc3ccc4c(c3)[nH]c3c(C)nccc34)ccc12 (stereo not drawn) [BA016DD1183, 7,7'-[(2,2-dimethyl-1,3-dioxolane-4,5-diyl)bis(methyleneoxy)]bis(1-methyl-9H-β-carboline)]","0,158",61,similar,increased,increased,1000,750,marked inhibitory activity,300,marked inhibitory activity,125,able to reorganise the actin network,inhibited,inhibited,–,–,–,–,–
"COc1ccc2c3ccnc(C)c3n(CCCCCn3c4cc(OC)ccc4c4ccnc(C)c43)c2c1 [BA016FZ518, 9,9'-pentane-1,5-diylbis(7-methoxy-1-methyl-9H-β-carboline)]","0,104",59,similar,increased,increased,750,3000,marked inhibitory activity,250,marked inhibitory activity,40,able to reorganise the actin network,inhibited,inhibited,–,–,–,–,–
"Cc1nccc2c1[nH]c1cc(OCCCOc3ccc4c(c3)[nH]c3c(C)nccc34)ccc12 [BA016FZ527, 7,7'-[Propane-1,3-diylbis(oxy)]bis(1-methyl-9H-β-carboline)]","0,132",83,–,increased,increased,1000,1500,marked inhibitory activity,500,marked inhibitory activity,175,able to reorganise the actin network,inhibited,inhibited,higher,higher,–,–,–
Cc1nccc2c1[nH]c1cc(O)ccc12 [harmol],–,–,–,No increase,–,–,–,–,–,–,–,–,–,–,–,–,42,non-cytotoxic concentration,did not display an inhibitory activity
